Where two headings read alike, the source gives them in different places.
Legend:
UGT1A9 [1] = target: T1, UGT1A9 (Homo sapiens, UniProt O60656); conditions: panel of purified human UGT enzymes
T1 sequence (O60656 26-530): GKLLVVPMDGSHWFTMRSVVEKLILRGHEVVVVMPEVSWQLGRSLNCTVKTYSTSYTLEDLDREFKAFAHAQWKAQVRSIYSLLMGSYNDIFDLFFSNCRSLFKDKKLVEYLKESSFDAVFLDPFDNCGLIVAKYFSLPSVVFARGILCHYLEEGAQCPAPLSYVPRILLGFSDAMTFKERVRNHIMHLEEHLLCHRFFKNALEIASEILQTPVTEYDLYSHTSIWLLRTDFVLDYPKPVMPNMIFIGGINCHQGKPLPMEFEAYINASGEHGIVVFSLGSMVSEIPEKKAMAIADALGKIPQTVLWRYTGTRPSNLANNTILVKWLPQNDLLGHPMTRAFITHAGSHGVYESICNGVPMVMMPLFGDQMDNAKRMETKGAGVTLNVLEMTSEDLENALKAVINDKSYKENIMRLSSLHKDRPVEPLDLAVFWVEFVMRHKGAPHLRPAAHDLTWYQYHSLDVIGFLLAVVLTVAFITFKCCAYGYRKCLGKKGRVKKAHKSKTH

[2] = type: in vivo, human
[3] = cited from earlier work
UGT1A9 [4] = target: T1, UGT1A9; assay: Inhibition of UGT1A9-mediated sorafenib glucuronidation by azole antifungals; type: biochemical
AML cell lines = conditions: cited from earlier work
[5] = test system: human liver microsomes (HLM); assay: Sorafenib N-oxide formation in microsomes from human liver samples; type: in vitro ADME; conditions: 10 to 15 year age group, sorafenib 10 µM, 60 min
not read = substrate: CNC(=O)c1cc(Oc2ccc(NC(=O)Nc3ccc(Cl)c(C(F)(F)F)c3)cc2)ccn1; assay: not read; conditions: other: purified human UGT1A9

Q: Which results are given for CNC(=O)c1cc(Oc2ccc(NC(=O)Nc3ccc(Cl)c(C(F)(F)F)c3)cc2)ccn1 [sorafenib, reference compound]?
A: Enzyme responsible for sorafenib glucuronidation (UGT1A9 [1]): UGT1A9 is primarily responsible for sorafenib glucuronidation; CV% of steady-state sorafenib CL/F ([2]; all 30 patients): 58%; Steady-state sorafenib apparent oral clearance (CL/F), mean±standard deviation ([2]; all 30 patients): 64±37 mL/min/m^2

Q: Which “Effect of ketoconazole on sorafenib plasma clearance” value ([3]; healthy subjects) does the source give for CC(=O)N1CCN(c2ccc(OCC3COC(Cn4ccnc4)(c4ccc(Cl)cc4Cl)O3)cc2)CC1 (stereo not drawn) [ketoconazole, reference compound] here?
A: The value was “no effect on sorafenib plasma clearance”.

Q: What about the Ki (UGT1A9 [4]) of the same molecule?
A: Its Ki is 2.2 µM.

Q: For C[C@@H](c1ncncc1F)[C@](O)(Cn1cncn1)c1ccc(F)cc1F [voriconazole], which “Inhibition of sorafenib glucuronidation in vitro” value (UGT1A9 [4]) is on record?
A: Its value is “weak inhibitors of sorafenib glucuronidation”.

Q: Which results are given for CC[C@@H]([C@H](C)O)n1ncn(-c2ccc(N3CCN(c4ccc(OC[C@@H]5CO[C@@](Cn6cncn6)(c6ccc(F)cc6F)C5)cc4)CC3)cc2)c1=O [posaconazole, reference compound]?
A: Inhibition of sorafenib glucuronidation in vitro (UGT1A9 [4]): weak inhibitors of sorafenib glucuronidation; Effect on sorafenib N-oxide production in vivo (children given sorafenib concurrent with the azole): reduced N-oxide production to negligible levels

Q: For CCNCCNC(=O)c1c(C)[nH]c(/C=C2\C(=O)Nc3ccc(F)cc32)c1C [N-desethyl-sunitinib], which “Share of total pharmacologic activity accounted for by the active metabolite” value ([3]; cancer patients given sunitinib) is on record?
A: The value was 30–50%.

Q: For CNC(=O)c1cc(Oc2ccc(NC(=O)Nc3ccc(Cl)c(C(F)(F)F)c3)cc2)cc[n+]1[O-] [sorafenib N-oxide], which “Rate of conversion of sorafenib to sorafenib N-oxide” value ([3]; adults with AML) is on record?
A: The value was < 10%.

Q: What about the “Sorafenib N-oxide as share of circulating sorafenib concentrations” value ([3]; healthy subjects and cancer patients) of the same molecule?
A: The value was “approximately 10%”.

Q: What about the “Rate of conversion of sorafenib to sorafenib N-oxide” value ([3]; twelve children with relapsed/refractory AML) of the same molecule?
A: The value was 33%.

Q: What about the “Cytotoxic activity” value (AML cell lines) of the same molecule?
A: The value was “exhibited cytotoxic activity”.

Q: What about the N-oxide metabolite ratio (first patient, day 383, concurrent oral voriconazole 150 mg twice daily) of the same molecule?
A: The N-oxide metabolite ratio was 0.05.

Q: And the N-oxide metabolite ratio (second patient, day 575, concurrent oral voriconazole 150 mg twice daily)?
A: The N-oxide metabolite ratio was 0.05.

Q: What about the N-oxide metabolite ratio (second patient, day 607, concurrent oral voriconazole 150 mg twice daily) of the same molecule?
A: The N-oxide metabolite ratio was 0.09.

Q: And the “Mean sorafenib N-oxide metabolite ratio (metabolite Css,ave / sorafenib Css,ave)” value ([2]; all patients)?
A: Its value is ~ 0.30.

Q: And the “CV% of sorafenib N-oxide metabolite ratio” value ([2]; boys greater than 10 years)?
A: Its value is 11%.

Q: What about the “CV% of sorafenib N-oxide metabolite ratio” value ([2]; boys ≤ 10 years) of the same molecule?
A: The value was 39%.

Q: And the “Conversion to sorafenib N-oxide” value ([2]; boys ≤ 10 years)?
A: The value was 40%.

Q: What about the “Sorafenib N-oxide metabolite ratio” value ([2]; boys ≤ 10 years) of the same molecule?
A: The value was 0.40±0.15.

Q: And the “Mean conversion to sorafenib N-oxide” value ([2]; children 1 to 19 years)?
A: Its value is 27%.

Q: What about the “N-oxide metabolite ratio, boys versus girls” value ([2]; children ≤ 10 years) of the same molecule?
A: The value was “approximately 2 fold”.

Q: And the “Circulating concentrations of sorafenib N-oxide, mean” value ([2]; children, sorafenib 200 mg/m^2)?
A: The value was 2 to 3 µM.

Q: And the “Sorafenib N-oxide metabolite ratio” value ([2]; females, all ages)?
A: The value was 0.22±0.10.

Q: And the “CV% of sorafenib N-oxide metabolite ratio” value ([2]; girls greater than 10 years)?
A: The value was 20%.

Q: And the “CV% of sorafenib N-oxide metabolite ratio” value ([2]; girls ≤ 10 years)?
A: The value was 59%.

Q: What about the “Sorafenib N-oxide metabolite ratio” value ([2]; girls ≤ 10 years) of the same molecule?
A: Its value is 0.22±0.12.

Q: And the “Sorafenib N-oxide metabolite ratio” value ([2]; males older than 10 years)?
A: Its value is 0.18±0.021.

Q: And the “Sorafenib N-oxide metabolite ratio” value ([2]; males, all ages)?
A: Its value is 0.26±0.15.

Q: What about the “Sorafenib N-oxide formation velocity, median” value ([5]; females) of the same molecule?
A: Its value is −1.5 log[µM/min/mg HLM].

Q: And the “Sorafenib N-oxide formation velocity, median” value ([5]; males)?
A: Its value is −1.1 log[µM/min/mg HLM].

B1: UGT1A9 (Homo sapiens) (protein)
chain: GKLLVVPMDGSHWFTMRSVVEKLILRGHEVVVVMPEVSWQLGRSLNCTVKTYSTSYTLEDLDREFKAFAHAQWKAQVRSIYSLLMGSYNDIFDLFFSNCRSLFKDKKLVEYLKESSFDAVFLDPFDNCGLIVAKYFSLPSVVFARGILCHYLEEGAQCPAPLSYVPRILLGFSDAMTFKERVRNHIMHLEEHLLCHRFFKNALEIASEILQTPVTEYDLYSHTSIWLLRTDFVLDYPKPVMPNMIFIGGINCHQGKPLPMEFEAYINASGEHGIVVFSLGSMVSEIPEKKAMAIADALGKIPQTVLWRYTGTRPSNLANNTILVKWLPQNDLLGHPMTRAFITHAGSHGVYESICNGVPMVMMPLFGDQMDNAKRMETKGAGVTLNVLEMTSEDLENALKAVINDKSYKENIMRLSSLHKDRPVEPLDLAVFWVEFVMRHKGAPHLRPAAHDLTWYQYHSLDVIGFLLAVVLTVAFITFKCCAYGYRKCLGKKGRVKKAHKSKTH
Q: With B1 as the molecule, how does the Km (not read) read?
A: Its Km is 3.6 ± 0.22 µM.
